According to patent US20230355562A1, “METHODS FOR STABILIZING ATHEROSCLEROTIC PLAQUES USING LIPOXINS, RESOLVINS, AND ANALOGS THEREOF” (The Forsyth Institute, priority 2015, published 2023):

Assays:
atherosclerotic plaques = experiment: Plaque disruption by MRI before and after triggering in a rabbit model of atherosclerosis (cholesterol diet plus balloon injury); type: in vivo, New Zealand White (NZW) rabbits; details: for plaque stabilization: applied to both sides of the mandible on the gingiva every-other-day, high cholesterol diet and balloon injury to descending thoracic and abdominal aortic segments
Description: New Zealand White (NZW) rabbits (n=10) received cholesterol-enriched diet (1%) for 8 weeks to develop atherosclerosis. In addition, balloon injury was performed at 2 weeks to advance the atherosclerosis at the descending thoracic and abdominal aortic segments. The […] of cholesterol feeding was followed by a 4 week period of normal chow diet at the end of the experiment. Half of the rabbits were randomized in the experimental (9,12 benzo LXA4-treated) group and half in the control group.
Topical LXA4 (1 mg/ml) was applied on both side of the mandible on the gingiva every-other-day for the duration of the experiment. In vivo MRI images were taken at 12 weeks at before and after triggering. After euthanasia, the aortas were dissected for ex-vivo MRI and histology.

[1] = tested on: polymorphonuclear leukocyte (PMN) infiltration; details: in vivo, mouse model of acute inflammation; cited from earlier work

Compound: 9,12 benzo LXA4
- plaque stabilization (atherosclerotic plaques): sufficient to stabilize atherosclerotic plaques
- segments that showed disruption (post-trigger image showed a luminal thrombus) of segments analyzed (atherosclerotic plaques; treatment group, topical 1 mg/ml on gingiva, both sides of the mandible, every-other-day, in vivo MRI at 12 weeks, only one site in one rabbit): 2/104
- levels of pro-inflammatory cytokines [1]: significantly reducing
- polymorphonuclear leukocyte (PMN) infiltration [1]: significantly reducing

Compound: CC[C@@H](O)/C=C/C=C\C[C@@H](O)/C=C/C=C/C=C\[C@@H](O)CCCC(=O)O [Resolvin E1]
- plaque stabilization (atherosclerotic plaques): sufficient to stabilize atherosclerotic plaques
